Experiments:
Format in all cases: in vivo
Mosquitoes = experiment: Insecticidal aerosol efficacy, sealed drum apparatus (GB/T13917.2-2009), mosquitoes; details: for Mortality rate: aerosol 0.3% active ingredient, 24 h; for Mortality rate / KT50: 1 g sprayed, mosquitoes; for KT50: aerosol containing 0.3% active ingredient
Method: (§1) 0.3 parts by weight of compound 1 with 59.7 parts by weight of kerosene were heated and evenly mixed to prepare an insecticide. The resulting preparation was placed in an aerosol can equipped with a valve, through which 40.0 parts by weight of propane and butane were injected underpressure, to obtain an insecticidal aerosol containing 0.3% compound 1.
(§2) The insecticidal aerosol was tested for efficacy on mosquitoes, flies, and German cockroaches in accordance with GB/T13917.2-2009, using a sealed drum apparatus. The specific process was as follows: placing the test insects into a tank, and after the test insects resumed normal activities, quantitatively spraying 1 g of the agent from the insecticidal aerosol can, pulling out the baffle after 1 min to make the test insects in contact with the agent, immediately starting timing and recording the number of the test insects knocked down at regular intervals, transferring all the test insects to a clean insect rearing cage after 20 min, and checking the number of dead insects after 24 h, wherein the German cockroaches were tested for 72-h mortality rate.
(§3) The aerosols of compounds 1-3, Momflurothrin and tetramethylfluthrin were prepared according to Test Example 2, and were tested for efficacy.

German cockroaches = experiment: Insecticidal aerosol efficacy, sealed drum apparatus (GB/T13917.2-2009), German cockroaches; details: 1 g sprayed; for Mortality rate: aerosol 0.3% active ingredient, 72 h; for KT50: aerosol containing 0.3% active ingredient
Method: as §1, §2, §3

Flies = experiment: Insecticidal aerosol efficacy, sealed drum apparatus (GB/T13917.2-2009), flies; details: 1 g sprayed; for Mortality rate: aerosol 0.3% active ingredient, 24 h; for KT50: aerosol containing 0.3% active ingredient
Method: as §1, §2, §3

[1] = system: female mosquitoes of Culex pipiens pallens; experiment: Mosquito-repellent incense mosquito-killing efficacy, sealed drum apparatus (GB/T13917.4-2009); details: for KT50: mosquito-repellent incense W1-W5, active ingredient 0.04 w/w %, incense burnt 1 min, 20 female Culex pipiens pallens
Method: 99.96 parts by weight of a mixture consisting of corn starch, carbon powder and wood powder (1:5:4) were added with 120 parts by mass of water, kneaded into shape, and then dried to form a mosquito-repellent incense substrate (with a diameter of 12.0 cm, a thickness of 4 mm, and a pair weighing 40 g).
On the other hand, a 0.4 w/v % solution of compound 1 in kerosene was prepared. The set of incense substrate was uniformly spray-coated with 4 ml of the above solution using a microsyringe, and then left to dry at room temperature for 3 h to obtain a set of mosquito-repellent incense W1 containing 0.04 w/w % compound 1.
Similarly, compounds 2-3 of the present invention shown in Table 1, as well as Momfluorothrin and tetramethylfluthrin were prepared respectively to obtain corresponding mosquito-repellent incenses W2 to W5.
The mosquito-repellent incenses W2 to W5 were measured and compared in terms of mosquito-killing efficacy in accordance with GB/T13917.4-2009. […] The specific process was as follows: sucking 20 test mosquitoes with a mosquito suction tube, placing them into a sealed drum apparatus, taking a section of mosquito-repellent incense to be tested and placing it on an incense holder, lighting the incense and starting timing, removing the mosquito-repellent incense after 1 min, and recording the number of test mosquitos knocked down at regular intervals.

[2] = Rat acute dermal toxicity; details: in vivo, topical or ocular, read-out: rat acute dermal toxicity median lethal dose (LD50)
rat [3] = experiment: Rat acute dermal toxicity
Rat acute oral toxicity = details: in vivo, read-out: rat acute oral toxicity median lethal dose (LD50)
rat [4] = experiment: Rat acute oral toxicity

SMILES	Mortality rate (Mosquitoes)	KT50 (Mosquitoes)	Mortality rate (German cockroaches)	KT50 (German cockroaches)	Mortality rate (Flies)	KT50 (Flies)	KT50 [1]	LD50 [2]	acute dermal toxicity classification (rat [3])	LD50 (Rat acute oral toxicity)	acute oral toxicity classification (rat [4])	knockdown activity against mosquitoes (Mosquitoes; as an aerosol in a cylindrical container)	activity as mosquito-repellent incense ([1]; as mosquito-repellent incense)
CC1(C)C(/C=C\C#N)C1C(=O)OCc1cc(F)cc(F)c1F (centres unmarked) [Compound 1, 2,3,5-trifluorobenzyl (Z)-3-(2-cyanovinyl)-2,2-dimethylcyclopropanecarboxylate]	100%	1.33 min	95%	4.05 min	100%	2.32 min	2.45 min						
CC1(C)C(/C=C\C#N)C1C(=O)OCc1c(F)ccc(F)c1F (centres unmarked) [Compound 2, 2,3,6-trifluorobenzyl (Z)-3-(2-cyanovinyl)-2,2-dimethylcyclopropanecarboxylate]	100%	3.58 min	90%	6.26 min	100%	4.65 min	5.42 min						
CC1(C)C(/C=C\C#N)C1C(=O)OCc1c(F)c(F)cc(F)c1F (centres unmarked) [Compound 3, 2,3,5,6-tetrafluorobenzyl (Z)-3(2-cyanovinyl)-2,2-dimethylcyclopropanecarboxylate]	100%	2.45 min	95%	5.52 min	100%	3.45 min	4.65 min	> 5000 mg/kg	slightly toxic	> 5000 mg/kg	slightly toxic		
COCc1c(F)c(F)c(COC(=O)C2C(/C=C(/C)C#N)C2(C)C)c(F)c1F (centres unmarked) [Momfluorothrin, reference compound]	100%	12.35 min	60%	17.56 min	70%	15.28 min	27.87 min					good knockdown activity	relatively poor activity
COCc1c(F)c(F)c(COC(=O)C2C(C)(C)C2(C)C)c(F)c1F [tetramethylfluthrin, reference compound]	100%	6.46 min	65%	9.12 min	80%	8.56 min	9.23 min						

Reference: patent publication US20250313526A1, “PYRETHROID COMPOUND CONTAINING DOUBLE BONDS AND CYANO GROUPS, SYNTHESIS METHOD THEREFOR, AND APPLICATION THEREOF” (Jiangsu Yangnong Chemical Co., Ltd., priority 2022, published 2025)
